Reference: US20200281928A1, “VITAMIN B1 IN HIGH DOSES FOR USE IN THE MEDICAL TREATMENT OF MOTOR SYMPTOMS OF SOME SPORADIC NEURODEGENERATIVE DISEASES, OF GENETIC ORIGIN, AND OF CLUSTER HEADACHE AND OF MIGRAINE HEADACHE” (priority 2017, published 2020)
Like-named read-outs stand apart in the source and are kept apart here.

Experiments:
[1] = test system: Multisystemic Atrophy (MSA) Type Parkinson (Type P); details: for Improvement of motor symptoms: UPDRS portion III, two months of therapy; for UPDRS portion III after therapy: five 100 mg/ml vials intramuscularly per week plus low doses of other group b vitamins and magnesium, two months, scale 0-56
Procedure: We treated four patients affected by such pathology, two women and two men with five vials intramuscularly per week of vitamin B1. One vial included 100 mg/ml of thiamine. The injection was performed each morning for the first five days of the week. The dose was determined empirically based upon the disease progression rapidity.
Moreover, low doses of all other vitamins of group b, including folic acid, 150 mg of magnesium citrate and 150 mg of magnesium malate, were associated to the treatment.
The patients were evaluated with UPDRS (Unified Parkinson's Disease Rating Scale), scale validated for all Parkinson forms.
The diagnoses were made by Italian primary neurological centres based upon anamnestic, clinical, evolutionary, neuroradiological and neurophysiological data.

[2] = test system: Cluster Headache (also called Horton headache); details: person
Procedure: The patient was evaluated with Cluster Headache Quality of Life (CHQ) scale before starting the treatment and every 15 days after starting the treatment which started in December 2016. The score of this scale ranges from 28 (absence of symptoms) to 140 (maximum deficit, maximum negative influence in daily life activities).
The patient started the therapy with 250 mg of thiamine orally, by increasing by 250 mg every three days.

[3] = test system: Dystonia 1 (DYT1); details: for Fahn-Mardsen motion scale after treatment: scale 0-120; for Fahn-Mardsen disability scale after treatment: scale 0-30
Procedure: The studied patients were two, a person and a person, parent and child. The disease is genetic and has a transmission of dominant type. The diagnosis was made in primary neurological centres based upon anamnestic, clinical and laboratory data.
They were evaluated with Fahn-Mardsen scale of dystonia (Fahn-Mardsen Rating Scale). This scale consists of two sub-scales: 1) motion scale 2) disability scale. The first one ranges from 0 (no motion disorder) to 120 (maximum intensity and extension of the motion dystonic disorder). The second one ranges from 0 (no disability) to 30 (maximum disability)

[4] = patient P1, two months of treatment
[5] = patient P2, two months of treatment
[6] = patient P2, two months of treatment, before treatment 4

SMILES: Cc1ncc(C[n+]2csc(CCO)c2C)c(N)n1 [vitamin B1, thiamine]
- Improvement of motor symptoms ([1]; patient N1 (person eleven)): 30.8%
- UPDRS portion III after therapy ([1]; patient N1 (person eleven), before therapy 26): 18 scores
- Improvement of motor symptoms ([1]; patient N2 (person ten)): 11.8%
- UPDRS portion III after therapy ([1]; patient N2 (person ten), before therapy 34): 30 scores
- Improvement of motor symptoms ([1]; patient N3 (person three)): 55.5%
- UPDRS portion III after therapy ([1]; patient N3 (person three), before therapy 9): 5 scores
- Improvement of motor symptoms ([1]; patient N4): 47.6%
- UPDRS portion III after therapy ([1]; patient N4, before therapy 21): 10 scores
- time from the beginning until the headache attacks wholly disappeared ([2]; at the dose of 750 mg per day orally, printed as within about 8 days): ≤ 8 days
- effect of an attempt of interrupting the treatment ([2]; oral thiamine interrupted): quick re-appearance of headache episodes
- outcome of symptoms under continued treatment ([2]; oral thiamine, maintained by continuing the treatment (more than five months)): complete regression of the symptoms
- CHQ after treatment ([2]; thiamine orally, 250 mg increased by 250 mg every three days to 750 mg per day, after 15 days, before treatment 82, scale 28 (absence of symptoms) to 140): 28 scores
- improvement of disability scale [3, 4]: 35.8%
- improvement of motion scale [3, 4]: 53.0%
- Fahn-Mardsen motion scale after treatment ([3]; patient P1, two months of treatment (dose not given), before treatment 66): 31 scores
- Fahn-Mardsen disability scale after treatment ([3]; patient P1, two months of treatment, before treatment 14): 9 scores
- improvement of disability scale [3, 5]: 50.0%
- improvement of motion scale [3, 5]: 50.0%
- Fahn-Mardsen disability scale after treatment [3, 6]: 2 scores
- Fahn-Mardsen motion scale after treatment [3, 6]: 2 scores
